Tests used:
HTLV-1 = test: Inhibition of HTLV-1 transmission to lymphomonocytes by co-cultivation (DNA-PCR, RT-PCR, Tax Western blot); format: cell-based, HTLV-1 (human T lymphotropic retrovirus type 1); settings: lowest concentrations (5µM and 1 µM)
Protocol: (§1) To assay the capacity to inhibit transmission, lymphomonocytes of adult peripheral blood were separated by density gradient centrifugation and then infected with HTLV-1 by co-cultivation with a chronically infected line that produces viruses, following irradiation of the donor cells (Miyoshi et al. Nature 1981, 296: 770-772).
(§2) The assayed nucleoside analogues (compounds A, B and C) were added at different concentrations at the moment of infection and the treatment was repeated at 3, 7 and 10 days from the first exposure.
The infection was monitored by verifying that the cells treated had become infected, compared to untreated controls, four weeks after infection. The infection was determined by monitoring the presence of proviral DNA and the viral RNA expression, by DNA-PCR and RT-PCR assay respectively. With these techniques it is possible to amplify and highlight the viral genome of HTLV-1 integrated into the host cell, that is virus-specific RNA-messengers, by the use of specific oligonucleotides for viral regions.
For further evaluation of the infection the viral protein expression of HTLV-1 Tax was also highlighted using Western blot analysis with specific monoclonal antibodies.

[1] = test system: lymphomonocytes of adult peripheral blood; test: Proliferative response of infected and uninfected lymphomonocyte cultures; format: cell-based; settings: lowest concentrations (5µM and 1 µM)
Protocol: as §1, §2
Moreover, the infected and uninfected cultures, treated or untreated with the compounds in question, were assayed to determine the proliferative response during infection, in order to verify, in addition to the antiviral effect also any antiproliferative effect with regard to the infected cultures.

RT of avian retrovirus = test: Inhibition in vitro of retroviral reverse transcriptase (cDNA synthesis, 32P incorporation, gel electrophoresis); format: biochemical; settings: after preincubation with PBMC lysates
From the text: In addition to the tests on cells susceptible to infection by human retroviruses, an assay was set up to highlight the capacity of the compounds A, B and C to inhibit in vitro the activity of a retroviral reverse transcriptase (RT). In short, the assay is based on the principle that starting from an RNA template, it is possible to evaluate the effect of inhibition of the capacity of the RT to synthesise cDNA, by identifying the cDNA fragment of neosynthesis, following gel electrophoretic run, thanks to incorporation of a nucleotide precursor labelled with phosphorus 32 (P32). […] As in order to be utilisable by the RT, the nucleoside analogues must be transformed into their triphosphate form, the compounds in question were placed in contact with cell protein extracts containing kinases capable of inducing phosphorylations. For this purpose protein extracts were used, obtained by lysis from a million PBMC previously stimulated in 48h of culture with PHA. The nucleoside compounds were incubated in ice for one hour with the lysates. After incubation the samples were taken to 95°C in order to inactivate the cellular enzymes present in the lysates. […]

HSV-1, strain "F" = test: Plaque reduction assay in Vero cells; format: cell-based, herpes simplex type 1 (HSV-1); settings: Human alphaherpesvirus 1; HSV-1, Vero cells, 72h; read-out: EC50 (concentration capable of reducing the formation of plaques by 50%)
Protocol: (§3) To assay the activity of the compounds also towards herpes virus infections, the model for in vitro transmission of herpes simplex type 1 (HSV-1) and of herpes simplex type 2 (HSV-2) to permissive cells of the Vero cell line and plaque reduction assay were used. Vero cells were transferred and cultivated for 24h at 37°C in six-well plates for the cultures to reach confluence. After removal of the culture medium in the wells, a suspension was added containing 100 plaque forming units (PFU) of HSV-1, strain "F", or HSV-2, strain "G" in 100 µl of medium. After one hour of incubation the appropriate quantities of compounds were added diluted in culture medium with the addition of serum 2% and methylcellulose 0.8% to obtain final concentrations of the compounds ranging from 1 µM to 400 µM. The cultures were then incubated for 72h, the medium was removed from the wells and stained with crystal violet 0.8%. After removing the wash liquid, the plates were left to dry and the number of plaques was determined. Acyclovir was used as the positive reference control. A double assay was performed and the values of EC50 (concentration capable of reducing the formation of plaques by 50%) were calculated by extrapolating the mean number of plaques from the plot towards the corresponding concentrations of the compounds.

HSV-2, strain "G" = test: Plaque reduction assay in Vero cells; format: cell-based, herpes simplex type 2 (HSV-2); settings: Human alphaherpesvirus 2; HSV-2, Vero cells, 72h; read-out: EC50 (concentration capable of reducing the formation of plaques by 50%)
Protocol: as §3

HIV-1 = test: Anti-HIV activity in CEM cells, p24 ELISA in supernatant
Protocol: The strain HIV-1 mixed with HIV-IIIB produced in chronically infected cells of lymphoid origin H-9 and therefore capable of growing the virus stably in a culture, was used to assay the anti-HIV activity. Viral inoculation was prepared by low speed centrifugation (3000 rpm) of the supernatant from the line producing the virus and by subsequent ultracentrifugation (40,000 rpm). The concentrated virus was titrated in TCID 50%/ml (units infecting 50% of the cultures). Cells from the lymphoid T-cell line, CEM, were used as cells to infect. The target cells were placed in contact with various quantities of TCID 50% of titrated virus, in an interval ranging from a MOl (multiplicity of infection) of 0.0001 and 0.1 TCID 50%/cell.
The cultures were kept for 7 days at 37°C in the presence of fetal bovine serum 2%. After 2-4 days of culture the medium was removed and replaced with fresh medium to which the compounds in question were again added.
After seven days of setting up the culture, the infection was evaluated using the ELISA method, measuring the production of HIV-1 p24 protein in the supernatant of infected cultures, treated and untreated.

[2] = Human immunodeficiency virus 1, CCRF-CEM, 168 h, read-out: inhibition of the production of p24 in the supernatant of infected cultures

SMILES | protection from the infection (HTLV-1) | antiproliferative action [1] | inhibition of RT activity (RT of avian retrovirus; 0.1, 1 and 20 µM) | EC50 (HSV-1, strain "F") [µM] | EC50 (HSV-2, strain "G") [µM] | inhibition of the production of p24 in the supernatant of infected cultures (HIV-1; 0.004 µM, CEM cells, 7 days) | inhibition at 0.04 µM (HIV-1; [2]) [%] | inhibition at 0.4 µM (HIV-1; [2]) [%] | inhibition of RT activity (RT of avian retrovirus; 0.1 and 10 µM) | inhibition at 0.004 µM (HIV-1; [2]) [%]
CCOP(=O)(CC1CC(n2cc(F)c(=O)[nH]c2=O)ON1C)OCC (stereo not shown) [Compound C] | total protection | poor or no antiproliferative action | capable of inhibiting RT activity | 34 | 56 | did not cause inhibition | 60 | 75 | – | –
CCOP(=O)(CC1CC(n2cc(C)c(=O)[nH]c2=O)ON1C)OCC (stereo not shown) [Compound B] | – | – | – | 62 | 78 | – | 50 | 70 | – | –
Cc1cn([C@H]2C[C@H](N=[N+]=[N-])[C@@H](CO)O2)c(=O)[nH]c1=O [AZT, zidovudine, reference compound] | – | – | – | – | – | – | 80 | 98 | capable of inhibiting RT activity | 60
Nc1nc2c(ncn2COCCO)c(=O)[nH]1 [acyclovir, Acyclovir, reference compound] | – | – | – | 14 | 32 | – | – | – | – | –
CCOP(=O)(CC1CC(n2ccc(N)nc2=O)ON1C)OCC (stereo not shown) [Compound A] | – | – | – | 48 | 72 | – | 45 | 70 | – | –

— EP1727814B1, “NUCLEOSIDE ANALOGUES WITH ANTIVIRAL ACTIVITY” (Universita' Degli Studi Di Catania, priority 2004, dated 2005)
